{"source": "patent US7659273B2", "about": "“Composition for accelerating bone fracture healing” (Mitsubishi Tanabe Pharma Corporation, priority 2001, dated 2010)", "tested_on": "fibula fracture region of streptozotocin-induced diabetic rats", "experiment": "Acceleration of fracture healing in diabetic rat (Experimental Example 7)", "type": "in vivo", "settings": "Example 7-(1) microspheres; for Bone mineral content: 6 weeks after sutura, DXA at fracture region; for Breaking Energy / Breaking force: 6 weeks, three-point bending test", "description": "CD (SD) IGS rats (Charles River Japan, Inc.; male; 7-week-old) were housed for seven days at room temperature (23±2° C.) and 55±15% humidity. During the housing period, the rats were free to access commercially available food (from Oriental Bio Service; CRF-1).\nStreptozotocin (Sigma), which induce diabetes, was dissolved in citrate-buffered saline (pH 4.5) to obtain 0.05 M streptozocin solution and injected intravenously to each rat at 60 mg/kg. One week later, blood was collected from tail end and blood-glucose level was determined with a blood-glucose monitor (Molecular Devices; M-SPmax250). Based on the measurements, rats were divided into groups so that a significant difference in glucose level may not occur among groups. The average blood-glucose level was from 426.12 to 428.23 mg/dl.\nUnder ether anesthesia, the left-lower legs of rats were shaved and sterilized with 70% aqueous ethanol, fibulas were exposed with scissors and cut with nail scissors (Natsume Seisakusyo; B17). The cut sections of the fibula were re-matched with tweezers. For the test groups (12 rats/group), the drug-containing microspheres prepared in Example 7-(1), which contains 0.03 or 0.1 mg of Compound (2), were placed around the cutting site using spatula followed by suturing with silk thread. For the control group (12 rats/group), the same amount of drug-free microspheres prepared in Control Example 2 were placed around the cutting site using spatula followed by suturing with silk thread. Following the suturing, every animal was sterilized with 70% aqueous ethanol. After six weeks from the sutura, under ether anesthesia, rats were sacrificed by laparotomy with bleeding, and the fibulas were excised.\nEight fibulas were randomly selected from those excised at 6 weeks after sutura and subjected to DXA bone densitometer (from Aloka; DCS-600) to determine bone mineral density and bone mineral content at fracture region, (scanning width: 1 mm).\nThe fibula used in the determination of mineral content was subjected to a three-point bending test with bone strength tester (from Muromachi Kikai Co., Ltd.; TK-252C) to determine bone strength. Briefly, the fibula was supported by two supports apart from each other by 8 mm and the cut section was positioned at the middle of these supports, i.e., 4 mm apart from the respective two supports. Loading (3 mm/minute) from upper direction was kept on the middle point (fracture section) of fibula until fibula begins to fracture. The maximum pressure necessary to break the bone was defined as the breaking force. The total energy spent to break the bone was defined as the breaking energy.\nFour fibulas excised at 6 weeks after sutura was photographed with micro focus magnification radiography system (Fuji Photo Film Co. Ltd.; μFX-1000; tube voltage: 25 kV; tube current: […]; 20 seconds)."}
{"smiles": "CCOc1cc2cc(CO)c(CO)c(-c3ccnc(-n4nc(-c5cccnc5)c5ccccc5c4=O)c3)c2cc1OCC", "note": "[Compound (2)]", "values": [{"measurement": "Bone mineral content", "setting": "drug content 0.03 mg", "value": "13.69 ± 0.96", "unit": "mg"}, {"measurement": "Breaking Energy", "setting": "drug content 0.03 mg", "value": "1.53 ± 0.39", "unit": "mJ"}, {"measurement": "Breaking force", "setting": "drug content 0.03 mg", "value": "8.13 ± 1.20", "unit": "N"}, {"measurement": "Bone mineral content", "setting": "drug content 0.1 mg", "value": "14.60 ± 0.69", "unit": "mg"}, {"measurement": "Breaking Energy", "setting": "drug content 0.1 mg", "value": "2.91 ± 0.82", "unit": "mJ"}, {"measurement": "Breaking force", "setting": "drug content 0.1 mg", "value": "11.75 ± 2.14", "unit": "N"}]}
